“And” between values parts separate entries of the source, which are not always exact repeats. Identical values can stand only once. “Also recorded” adds a separate entry of the source.
Columns and labels:
[1] = tested on: MCF7 parental and therapy-resistant (LYR, FR, LYFR, PDR) cells; assay: Proliferation (DAPI cell count, 2 doubling times) in parental and therapy-resistant cells; assay type: cell-based, human; conditions: with the corresponding resistant drug fixed
Procedure: (§1) The doubling time of each cell line was calculated and plates were removed from incubator after 2 doubling times. Cells were fixed and stained with DAPI and imaged with automated counting of cell number.

[2] = tested on: T47D parental and therapy-resistant (LYR, FR, LYFR, PDR) cells; assay: as above; assay type: cell-based, human; conditions: with the corresponding resistant drug fixed
Procedure: as §1

[3] = tested on: pRb, p21, p27, phosphorylated CHK2 in MKN1 cells; assay: Western blot pRb and cell cycle proteins; assay type: cell-based, human; conditions: 30-1000 nM, 24 hours
Procedure: The MKN1 human stomach carcinoma cell line was grown in RPMI-1640/1× Glutamax/10% heat inactivate fetal bovine serum and was plated at 300,000 cells/well in Corning 6 well tissue culture treated plates. Cells were incubated at 37° C. for 24 hours prior to addition of 2 replicates of 0.1% DMSO control and 1 replicate for each treatment. […] Cells were collected by washing each well twice with cold PBS, then scraping cells in the presence of 150 μL cold RIPA with protease and phosphatase inhibitors. Lysates were clarified by centrifugation at 14,000×g for 10 min at 4° C. and supernatants transferred to clean tubes. A BCA assay was performed to determine the protein concentration of each lysate. A total of 30 μg of protein was mixed with sample buffer and reducing agent before being run on a 4-12% SDS-PAGE. Protein was transferred to a nitrocellulose membrane and blocked with LI-COR blocking buffer for 1 hr. Membranes were incubated overnight in primary antibody at 4° C. Following 3 washes with TBS-T, membranes were incubated for 45 minutes in LI-COR secondary antibodies. Following 2 washes in TBS-T, and one TBS wash, membranes were scanned using a LI-COR OdysseyCLx. Image studio was used for image analysis.

[4] = tested on: BT474 human breast carcinoma cells; assay: Crystal violet colony assay; assay type: cell-based
Procedure: The T47D human breast carcinoma cell line was grown in RPMI-1640/1× Glutamax/1× Insulin/10% fetal bovine serum and was plated at 10,000 cells/well in Corning 6 well tissue culture treated plates. The BT474 human breast carcinoma cell line was grown in DMEM/1× Glutamax/1× Insulin/10% fetal bovine serum and was plated at 25,000 cells/well in Corning 6 well tissue culture treated plates. Cells were incubated at 37° C. for 24 hours prior to addition of treatment. […] Plates were collected at week 2 and 3, at week 3, 2 plates with only CDK4/6i were switched to combination treatment. The remaining plates were collected at weeks 5 and 8. Collection was performed by washing wells with PBS before incubating 5 minutes with 0.1% crystal violet/20% methanol. Dye was removed and wells washed 4 times with PBS before being scanned at 1200 dpi. Image J was used to count the % area and colony size for each well. Graph pad was used for analysis.

[5] = target: bile salt export pump (BSEP) (Homo sapiens, UniProt O95342); assay: Transporter inhibition; assay type: in vitro ADME
Plasma protein binding = assay type: in vitro ADME; conditions: across all species tested, read-out: bound to plasma proteins
[6] = tested on: OVCAR3 human ovary carcinoma CDX; assay: OVCAR3 cell line-derived xenograft (tumor volume, body weight, tumor Western blot); assay type: in vivo, mice
Procedure: 10 million OVCAR3 human ovary carcinoma cells were injected into athymic nude female mice. The study was initiated at a mean tumor volume of approximately 100-200 mm^3. […] The test agents were delivered at 5 mL/kg by oral gavage.
Tumors from FIG. 146A were harvested at the end of study and snap frozen. A small piece of each tumor was removed while frozen and lysed with 150 μL cold RIPA with protease and phosphatase inhibitors while being homogenized with mortar and pestle. Lysates were clarified by centrifugation at 14 kxg for 10 min at 4° C. and supernatants transferred to clean tubes. A BCA assay was performed to determine the protein concentration of each lysate. 30 μg of protein was mixed with sample buffer and reducing agent before being run on a 4-12% SDS-PAGE. Protein was transferred to a nitrocellulose membrane and blocked with LI-COR blocking buffer for 1 hour. Membranes were incubated overnight in primary antibody at 4° C. Following 3 washes with TBST, membranes were incubated for 45 minutes in LI-COR secondary antibodies. Following 2 washes in TBST, and one TBS wash, membranes were scanned using a LI-COR OdysseyCLx. Image studio was used for image analysis.

CDK2/Cyclin E (CDK2/E) = CDK2/Cyclin E (CDK2/E) (Homo sapiens, UniProt P24941); assay: Caliper microfluidic kinase assay (Nanosyn); assay type: biochemical
Procedure: Kinase phosphorylation assays were performed using a caliper technology microfluidics platform (Caliper Assay Platform). With this system, the target enzyme is incubated with fluorescently labeled substrate and test compounds in a standardized reaction mixture in 384 well plates. Upon termination of the reaction, samples are introduced onto microfluidic chips. The samples migrate through channels in the chips and product and substrate are separated based on the difference in their charge and mass (electrophoretic mobility shift). Enzyme activity is measured by direct comparison of the fluorescence in the product and substrate peaks.
Protein kinase activity was measured against multiple CDKs and their binding partners: CDK1/Cyclin B (CDK1/B), CDK2/Cyclin A (CDK2/A), and CDK2/Cyclin E (CDK2/E), CDK3/Cyclin E (CDK3/E), CDK4/Cyclin D1 (CDK4/D1), CDK6/Cyclin D3 (CDK6/D3), CDK5/p35 (CDK5/p35), CDK7/Cyclin H (CDK7/H), CDK9/Cyclin T1 (CDK9/T). Test compounds were diluted in 100% DMSO using 3-fold dilution steps. […] Compounds were tested in a single well for each dilution, and the final concentration of DMSO in all assays was kept at 1%.

[7] = tested on: BALB/c-3T3 mouse fibroblasts; assay: In vitro 3T3 NRU phototoxicity test; assay type: cell-based; conditions: UVA 2.5 J/cm^2 vs dark, Neutral Red
Procedure: BALB/c-3T3 mouse fibroblasts (ATCC) were seeded in 96-well plates at 15,000 cells per well, and grown for 24 hr in DMEM supplemented with 10% FBS, 100 U/mL penicillin, and 100 mg/L streptomycin at 37° C., humidified with 5% CO2.
All test articles were solubilized and serially diluted in DMSO, with the exception of histidine, which was solubilized and diluted in HBSS. All DMSO stocks were diluted in HBSS at the final testing concentrations. The final concentration of DMSO for all test articles was 1%. At the start of the assay, the growth medium was removed from the plates and replaced with test article dilutions. Six replicates were used for each concentration and two plates were prepared for each test article. The cells were incubated in the dark at 37° C., humidified with 5% CO2 with test articles for 1 hr. After the 1 hr incubation period, one plate of each test article was exposed to UVA light, 2.5 J/cm^2 over 18 min which is sufficient to induce a phototoxic response, while the second plate was incubated in the dark at room temperature for the same period of time. At the end of this incubation period, both plates were washed with PBS and fresh medium was added to each well. The plates were incubated at 37° C., humidified with 5% CO2 overnight. […] Cellular Neutral Red was measured by its absorbance at 540 nm.

Sequence of bile salt export pump (BSEP) (O95342 whole entry): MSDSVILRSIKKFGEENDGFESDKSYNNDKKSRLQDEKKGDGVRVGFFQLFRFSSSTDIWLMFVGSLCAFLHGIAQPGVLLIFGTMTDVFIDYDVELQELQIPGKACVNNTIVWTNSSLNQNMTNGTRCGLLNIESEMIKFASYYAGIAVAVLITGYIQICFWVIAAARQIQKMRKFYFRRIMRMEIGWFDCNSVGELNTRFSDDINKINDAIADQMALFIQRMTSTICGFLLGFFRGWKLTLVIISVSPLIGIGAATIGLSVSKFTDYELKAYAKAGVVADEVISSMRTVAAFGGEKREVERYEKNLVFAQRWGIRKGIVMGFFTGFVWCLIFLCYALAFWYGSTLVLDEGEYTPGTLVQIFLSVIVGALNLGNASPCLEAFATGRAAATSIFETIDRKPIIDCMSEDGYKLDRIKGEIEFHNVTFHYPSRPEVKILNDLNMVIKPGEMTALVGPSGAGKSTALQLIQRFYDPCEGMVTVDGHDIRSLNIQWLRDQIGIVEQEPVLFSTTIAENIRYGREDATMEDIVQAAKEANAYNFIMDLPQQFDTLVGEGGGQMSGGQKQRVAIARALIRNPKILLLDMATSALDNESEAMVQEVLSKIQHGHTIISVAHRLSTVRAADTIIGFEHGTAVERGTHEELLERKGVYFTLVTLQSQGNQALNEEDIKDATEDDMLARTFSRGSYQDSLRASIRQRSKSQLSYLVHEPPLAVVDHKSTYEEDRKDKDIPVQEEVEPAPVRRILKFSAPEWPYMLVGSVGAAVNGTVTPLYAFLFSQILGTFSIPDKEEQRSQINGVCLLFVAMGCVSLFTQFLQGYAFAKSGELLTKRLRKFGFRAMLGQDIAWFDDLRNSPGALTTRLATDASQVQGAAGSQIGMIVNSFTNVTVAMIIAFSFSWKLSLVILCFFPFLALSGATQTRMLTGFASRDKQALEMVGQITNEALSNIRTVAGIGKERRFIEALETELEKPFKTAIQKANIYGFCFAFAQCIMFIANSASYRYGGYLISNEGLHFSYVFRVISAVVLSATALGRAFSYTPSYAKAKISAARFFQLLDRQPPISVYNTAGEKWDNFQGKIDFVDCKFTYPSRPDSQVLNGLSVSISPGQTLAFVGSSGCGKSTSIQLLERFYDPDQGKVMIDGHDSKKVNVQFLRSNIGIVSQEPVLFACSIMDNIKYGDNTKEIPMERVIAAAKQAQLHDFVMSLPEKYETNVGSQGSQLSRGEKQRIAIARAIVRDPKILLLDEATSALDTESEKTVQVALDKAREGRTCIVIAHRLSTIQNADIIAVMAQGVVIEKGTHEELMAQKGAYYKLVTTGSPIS

NS(=O)(=O)c1ccc(Nc2ncc3cc4n(c3n2)C2(CCCCC2)C(=O)NN4)cc1 [Compound I]
cellular proliferation in therapy-resistant cells [1]: low, nanomolar IC50 values; also recorded: dose-dependent decrease in cellular proliferation | cellular proliferation in therapy-resistant cells [2]: low, nanomolar IC50 values; also recorded: dose-dependent decrease in cellular proliferation | pRb levels [3]: dose-dependent response decrease in pRb levels | growth with both Compound I and a CDK4/6i ([4]; 300 nM each, 8 weeks): no noticeable growth after 8 weeks | time to CDK4/6i resistance ([4]; 300 nM with palbociclib or abemaciclib, up to 8 weeks): prolonged the time to CDK4/6i resistance | BSEP inhibition [5]: did not inhibit | fraction unbound (Plasma protein binding): < 0.056 | tumor outcome ([6]; 100 mg/kg BID, 42 days): tumor stasis | TGI ([6]; 200 mg/kg QD, 42 days): 89% | tumor outcome ([6]; 100 mpk BID and 200 mpk QD, out to 42 days): durable tumor stasis or regression | Rb1 phosphorylation and cyclin A2 levels in ex vivo tumor samples ([6]; 100 mpk BID, at least 24 hours post-final dose): substantially reduces Rb1 phosphorylation and cyclin A2 levels | body weight loss ([6]; at any point): ≤ 5% | IC50 (CDK2/Cyclin E (CDK2/E); 12-point dose-response, 1 μM to 0.0056 nM, read-out: IC50 against CDK2/E): 0.6 nM and 0.56 nM | inhibition compared with other CDK/cyclin combinations (CDK2/Cyclin E (CDK2/E); FIG. 1A panel): greatest inhibition of CDK2/E and CDK2/A | phototoxicity [7]: negative for causing phototoxicity

Reference: patent US20250199015A1, “CYCLIN-DEPENDENT KINASE 2 INHIBITORS FOR MEDICAL TREATMENT” (INCYCLIX BIO, LLC, priority 2022, published 2025)
